Experimental findings from ChEMBL document CHEMBL3580543, “C-Geranylated Flavanones from Paulownia tomentosa Fruits as Potential Anti-inflammatory Compounds Acting via Inhibition of TNF-α Production” (J Nat Prod, 2015) are described below.

Series [1] has as its system THP-1. The series is described as follows: Cytotoxicity against human THP1 cells assessed as cell viability after 24 hrs by WST assay. To be noted: THP-1, 24 h. Format: cell-based.
The test system of series [2] is THP-1. The series is described as follows: Cytotoxicity against human THP1 cells at 2 uM after 24 hrs by WST assay. Format: cell-based. Particulars: thp-1, 24 h.
The test system of series [3] is THP-1. The series is described as follows: Cytotoxicity against human THP1 cells assessed as increase in ROS level at 2 uM. Format: cell-based. Particulars: thp-1, 2 µM.
The test system of series [4] is THP-1. The series is described as follows: Antiinflammatory activity in differentiated human THP1 cells assessed as inhibition of LPS-induced TNFalpha mRNA expression at 2 uM after 4 hrs by RT-qPCR analysis. Format: functional, cell-based. For orientation: In qPCR the cycle at which signal appears reflects the starting amount.
Series [5] relates to THP-1. The series is described as follows: Antiinflammatory activity in differentiated human THP1 cells assessed as inhibition of LPS-induced IkappaB degradation at 2 uM pretreated for 1 hr measured after 30 mins of LPS stimulation by Western blot analysis. Format: functional, cell-based. (In general: In western blotting, separated proteins are transferred to a membrane and probed.)

Series [6] deals with THP-1. The series is described as follows: Antiinflammatory activity in differentiated human THP1 cells assessed as inhibition of LPS-induced TNFalpha secretion at 2 uM after 24 hrs by ELISA. Format: functional, cell-based. In general terms: In an ELISA, binding on a coated surface is turned into a signal by an enzyme label.
Series [7] has as its system THP-1. The series is described as follows: Antiinflammatory activity in differentiated human THP1 cells assessed as inhibition of LPS-induced NFkappaB activation at 2 uM pretreated for 1 hr measured after 4 hrs of LPS stimulation by DAPI-staining based immunohistochemical analysis. It is filed as functional, cell-based.
Series [8] deals with THP-1. The series is described as follows: Antiinflammatory activity in differentiated human THP1 cells assessed as inhibition of LPS-induced ROS level at 2 uM pretreated for 1 hr measured after 24 hrs of LPS stimulation by fluorescence assay. It is filed as functional, cell-based.

Calls of active or inactive are those of the source. The rule behind the calls is not given here. Where only a bound is given, the exact number is not on record here.

In general, IC50 refers to the point on the concentration scale where inhibition reaches its midpoint. Consider `O=C1C[C@@H](c2ccc(O)c(O)c2)Oc2cc(O)cc(O)c21` [ERIODICTYOL], for which the IC50 in series [1] is over 10 µM. Moreover, the Activity entry in series [2] is on record as “Non-toxic”.

With `COc1cc([C@@H]2CC(=O)c3c(cc4c(c3O)CC(O)C(C)(CCC=C(C)C)O4)O2)ccc1O` (stereo partly drawn), the Activity result was “Toxic” in series [3] and “Non-toxic” in series [2]. Also, the IC50 in series [1] is under 10 µM. Further, the outcome in series [4], in series [5], in series [6] and in series [7] was Active. For the same molecule, the result in series [8] was inactive.

Take `O=C1C[C@@H](c2ccc(O)cc2)Oc2cc(O)cc(O)c21` [NARINGENIN]: the IC50 in series [1] was over 10 µM. The Activity result in series [2] is on record as “Non-toxic”.

For the molecule `C/C(=C\Cc1c(O)cc2c(c1O)C(=O)C[C@@H](c1ccc(O)cc1)O2)CCC(O)C(C)(C)O` (stereo partly drawn), the IC50 in series [1] was over 10 µM. Moreover, the Activity result in series [2] is on record as “Non-toxic”.

Turning to `CC(C)=CCC/C(C)=C/Cc1c(O)cc2c(c1O)C(=O)C[C@@H](c1ccc(O)cc1)O2` [BONANNIONE A], the half-inhibitory concentration (IC50) in series [1] was under 10 µM. Moreover, the Activity result in series [2] is reported as “Non-toxic”.

Turning to `COc1cc([C@H]2Oc3cc4c(c(O)c3C(=O)[C@@H]2O)C=CC(C)(CCC=C(C)C)O4)ccc1O` (stereo partly drawn), in series [1], the half-maximal inhibitory concentration (IC50) is over 10 µM. Also, the Activity result in series [2] is on record as “Non-toxic”. Further, in series [6], the outcome was Active.

As for `COc1cc(C2CC(=O)c3c(cc(O)c(C/C=C(\C)CCC(O)C(C)(C)OC)c3O)O2)cc(OC)c1O` (stereo not drawn), the IC50 in series [1] is over 10 µM. Besides, the Activity result in series [2] is “Non-toxic”.

As to `COc1ccc([C@@H]2CC(=O)c3c(cc(O)c(C/C=C(\C)CCC=C(C)C)c3O)O2)cc1OC`, the half-inhibitory concentration (IC50) in series [1] is under 10 µM. The Activity result in series [2] is given as “Non-toxic”. The outcome in series [6] was Active.

For the molecule `CC(C)=CCCC(C)(O)C1Cc2c(cc3c(c2O)C(=O)CC(c2ccc(O)cc2)O3)O1` (stereo not drawn), the half-inhibitory concentration (IC50) in series [1] is over 10 µM. Besides, in series [2], the Activity result was “Non-toxic”.

On to `C=C(CCC=C(C)C)C(O)Cc1c(O)cc2c(c1O)C(=O)C[C@@H](c1ccc(O)cc1)O2` (stereo partly drawn), for which the values for the Activity result in series [3] and in series [2] were “Toxic” and “Non-toxic”, respectively. For the same molecule, the IC50 in series [1] is over 11.4 µM. For the same molecule, the outcome in series [4], in series [5], in series [6] and in series [7] was Active.

Regarding `COc1cc([C@@H]2CC(=O)c3c(O)cc(O)cc3O2)cc(OC)c1OC`, the half-inhibitory concentration (IC50) in series [1] is over 10 µM. Besides, the Activity entry in series [2] is listed as “Non-toxic”.

As for `C=C(C)C1CCC(C)(C(O)Cc2c(O)cc3c(c2O)C(=O)C[C@@H](c2ccc(O)c(OC)c2)O3)O1` (stereo partly drawn), the IC50 in series [1] is over 10 µM. Further, the Activity entry in series [2] is listed as “Non-toxic”.

`COc1cc([C@@H]2CC(=O)c3c(cc(O)c(C/C=C(\C)CCC=C(C)C)c3O)O2)cc(O)c1OC`: the IC50 in series [1] was under 10 µM. In addition, the result in series [4], in series [5] and in series [7] was Active. For the same molecule, the Activity result in series [2] is reported as “Non-toxic”.

On to `COc1cc([C@H]2Oc3cc(O)c(C/C=C(\C)CCC=C(C)C)c(O)c3C(=O)[C@@H]2O)ccc1O`, for which, in series [1], the IC50 is under 10 µM. Further, the Activity result in series [2] is listed as “Non-toxic”. For the same molecule, the outcome in series [6] was Active.

Regarding `C=C(CCC=C(C)C)C(O)Cc1c(O)cc2c(c1O)C(=O)C[C@@H](c1ccc(O)c(OC)c1)O2` (stereo partly drawn), the 50% inhibitory concentration (IC50) in series [1] is under 6.5 µM. Besides, the Activity entry in series [2] is on record as “Non-toxic”.

For `COc1cc([C@@H]2CC(=O)c3c(cc(O)c(C/C=C(\C)CCC=C(C)C)c3O)O2)cc(OC)c1O`, the half-inhibitory concentration (IC50) in series [1] was under 10 µM. In series [2], the Activity entry is “Non-toxic”. Further, in series [6], the outcome was Active.

`CC(C)=CCCC1(C)C=Cc2c(cc3c(c2O)C(=O)C[C@@H](c2cc(O)cc(O)c2)O3)O1` (stereo partly drawn): in series [1], the IC50 was over 10 µM. Further, the Activity entry in series [2] was “Non-toxic”.

Take `COc1cc([C@@H]2CC(=O)c3c(cc(O)c(C/C=C(\C)CCC(O)C(C)(C)OC)c3O)O2)ccc1O` (stereo partly drawn): in series [1], the IC50 was over 10 µM. Besides, the Activity result in series [2] is “Non-toxic”.

Consider `COc1cc(C2CC(=O)c3c(cc(O)c(C/C=C(\C)CCC(O)C(C)(C)O)c3O)O2)cc(OC)c1O` (stereo not drawn), for which, in series [1], the half-inhibitory concentration (IC50) is over 10 µM. In addition, in series [2], the Activity result is “Non-toxic”.

Consider `COc1cc([C@@H]2CC(=O)c3c(cc(O)c(C/C=C(\C)C/C=C/C(C)(C)O)c3O)O2)ccc1O` [TOMENTODIPLACONE B], for which, in series [1], the IC50 is over 10 µM. Moreover, the Activity result in series [2] is given as “Non-toxic”. For the same molecule, the outcome in series [6] was Active.

On to `COc1cc([C@@H]2CC(=O)c3c(cc(O)c(C/C=C(\C)CCC=C(C)C)c3O)O2)ccc1O`, for which the IC50 in series [1] is under 10 µM. For the same molecule, the result in series [4], in series [5], in series [6] and in series [7] was Active. Besides, the Activity entry in series [2] is reported as “Non-toxic”. Besides, the outcome in series [8] was inactive.

In the case of `CC(C)=CCC/C(C)=C/Cc1c(O)cc2c(c1O)C(=O)C[C@@H](c1ccc(O)c(O)c1)O2` [NYMPHAEOL A], the half-maximal inhibitory concentration (IC50) in series [1] was over 10 µM. Further, the outcome in series [4], in series [5] and in series [7] was Active. Further, the Activity result in series [2] was “Non-toxic”. In addition, the result in series [8] was inactive.

Regarding `COc1cc([C@@H]2CC(=O)c3c(cc4c(c3O)CC(C(C)(O)CCC=C(C)C)O4)O2)ccc1O` (stereo partly drawn), the IC50 in series [1] was under 10 µM. Also, in series [2], the Activity entry is listed as “Non-toxic”.

With `COc1cc([C@@H]2CC(=O)c3c(cc(O)c(CC=C(C)C)c3O)O2)ccc1O`, in series [1], the IC50 is over 10 µM. Besides, the Activity entry in series [2] is reported as “Non-toxic”.

As to `COC(C)(C)C(O)CC/C(C)=C/Cc1c(O)cc2c(c1O)C(=O)C[C@@H](c1ccc(O)cc1)O2` (stereo partly drawn), the half-inhibitory concentration (IC50) in series [1] is over 10 µM. Besides, the Activity result in series [2] was “Non-toxic”.
